# Structures can show the parent of a compound that is named as a salt.
# Target: HPK full length, T165E S171E (Homo sapiens (Human), UniProt Q92918, S171E/T165E)
# Test: HPK1-FL HTRF enzymatic assay ("HTRF")
# Assay type: biochemical
# Conditions: ATP 1 mM, read-out: HPK1 Ki
# Procedure: Assay Principle: HPK-FL enzyme phosphorylates Biotin-SLP-76 substrate in the presence of ATP at […] and varying concentrations of test compound. Product is detected by FRET using Eu-anti-pSLP76 Ab and SA-XL665. Also see www.cisbio.com/HTRF for additional HTRF technology information.
# Instrumentation: Echo555 compound dispenser; Agilent Bravo; Perkin Elmer Envision.
# To a 384 well Proxiplate with 80 nL compound or DMSO spotted on was added 4 μl/well kinase mix. The mixture was preincubated for 30 minutes and then 4 μl/well substrate mix was added. The solution was incubated for 60 min and then 4 μl/well detection mix was added. The solution was incubated for another 60 min.
# Exemplary compounds were tested in the HTRF binding assays.
# Sequence of HPK full length, T165E S171E (Q92918 whole entry T165E/S171E, looked up): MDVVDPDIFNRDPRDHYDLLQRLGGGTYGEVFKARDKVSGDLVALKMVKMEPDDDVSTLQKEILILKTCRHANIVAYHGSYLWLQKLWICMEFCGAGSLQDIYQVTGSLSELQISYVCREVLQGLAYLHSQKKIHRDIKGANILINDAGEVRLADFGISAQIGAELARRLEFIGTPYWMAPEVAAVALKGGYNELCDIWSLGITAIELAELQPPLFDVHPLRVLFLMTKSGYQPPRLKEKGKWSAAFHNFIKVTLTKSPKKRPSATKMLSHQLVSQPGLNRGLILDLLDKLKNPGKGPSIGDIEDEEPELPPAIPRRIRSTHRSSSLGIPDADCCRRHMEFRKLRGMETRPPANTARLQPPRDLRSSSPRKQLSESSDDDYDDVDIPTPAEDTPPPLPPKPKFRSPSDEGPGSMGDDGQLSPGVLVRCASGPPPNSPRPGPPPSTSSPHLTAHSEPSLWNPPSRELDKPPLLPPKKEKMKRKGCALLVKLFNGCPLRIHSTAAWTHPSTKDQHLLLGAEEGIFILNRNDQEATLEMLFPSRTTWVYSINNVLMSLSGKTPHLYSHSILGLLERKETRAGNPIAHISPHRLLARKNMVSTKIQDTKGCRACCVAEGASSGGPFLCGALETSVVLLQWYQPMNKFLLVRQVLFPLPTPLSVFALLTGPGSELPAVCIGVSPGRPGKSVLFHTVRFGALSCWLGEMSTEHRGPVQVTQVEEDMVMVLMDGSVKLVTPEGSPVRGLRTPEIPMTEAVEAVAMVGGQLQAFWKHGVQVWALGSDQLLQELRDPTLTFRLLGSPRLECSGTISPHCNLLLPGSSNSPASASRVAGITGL
row,SMILES,Ki [nM]
1,"CCN1C[C@H](OC(=O)Nc2cc3cc(-c4cnc5c(c4C)NCCO5)c(F)c(N)c3cn2)CC1=O (single isomer, unassigned) [Compound 478a]",0.25
2,"CCN1C[C@@H](OC(=O)Nc2cc3cc(-c4cnc5c(c4C)NCCO5)c(F)c(N)c3cn2)CC1=O (single isomer, unassigned) [Compound 478b, (5)-1-Ethyl-5-oxopyrrolidin-3-yl (8-amino-7-fluoro-6-(8-methyl-2,3-dihydro-1H-pyrido[2,3-b][1,4]oxazin-7-yl)isoquinolin-3-yl)carbamate]",< 0.013
3,"Cc1c(-c2cc3cc(NC(=O)O[C@H]4CC(=O)N(C(C)C)C4)ncc3c(N)c2F)cnc2c1NCCO2 (single isomer, unassigned) [Compound 479a]",0.021
4,"Cc1c(-c2cc3cc(NC(=O)O[C@@H]4CC(=O)N(C(C)C)C4)ncc3c(N)c2F)cnc2c1NCCO2 (single isomer, unassigned) [Compound 479b]",< 0.013
5,"Cc1c(-c2cc3cc(NC(=O)O[C@@H]4CN(C)C(=O)C4(C)C)ncc3c(N)c2F)cnc2c1NCCO2 (single isomer, unassigned) [Compound 480a]",0.034
6,"Cc1c(-c2cc3cc(NC(=O)O[C@H]4CN(C)C(=O)C4(C)C)ncc3c(N)c2F)cnc2c1NCCO2 (single isomer, unassigned) [Compound 480b]",0.28
7,"Cc1c(-c2cc3cc(NC(=O)O[C@H]4CC(=O)N(C)C4)ncc3c(N)c2F)cnc2c1NCCC2 (single isomer, unassigned) [Compound 481a]",0.184
8,"Cc1c(-c2cc3cc(NC(=O)O[C@@H]4CC(=O)N(C)C4)ncc3c(N)c2F)cnc2c1NCCC2 (single isomer, unassigned) [Compound 481b]",0.018
9,"Cc1c(-c2cc3cc(NC(=O)O[C@@H]4Cc5nccn5C4)ncc3c(N)c2F)cnc2c1NCCO2 (single isomer, unassigned) [Compound 504a]",< 0.013
10,"Cc1c(-c2cc3cc(NC(=O)O[C@H]4Cc5nccn5C4)ncc3c(N)c2F)cnc2c1NCCO2 (single isomer, unassigned) [Compound 504b]",0.76
11,"Cc1c(-c2cc3cc(NC(=O)OC4C5COCC4CN(C(C)C)C5)ncc3c(N)c2F)cnc2c1NCCO2 (single isomer, unassigned) [Compound 506a]",< 0.013
12,"Cc1c(-c2cc3cc(NC(=O)OC4C5COCC4CN(CC(F)F)C5)ncc3c(N)c2F)cnc2c1NCCO2 (single isomer, unassigned) [Compound 507a]",< 0.013
13,"Cc1c(-c2cc3cc(NC(=O)O[C@H]4CCO[C@@H]4C)ncc3c(N)c2F)cnc2c1NCCO2 (single isomer, unassigned) [Compound 510b]",0.308
14,"Cc1c(-c2cc3cc(NC(=O)O[C@@H]4CCO[C@@H]4C)ncc3c(N)c2F)cnc2c1NCCO2 (single isomer, unassigned) [Compound 510d]",0.016
15,"Cc1c(-c2cc3cc(NC(=O)O[C@@H]4CCC5(CCN(C6COC6)CC5)C4)ncc3c(N)c2F)cnc2c1NCCO2 (single isomer, unassigned) [Compound 511a]",< 0.013
16,"Cc1c(-c2cc3cc(NC(=O)O[C@H]4CCC5(CCN(C6COC6)CC5)C4)ncc3c(N)c2F)cnc2c1NCCO2 (single isomer, unassigned) [Compound 511b]",0.017
17,"CC[C@@H]1COC[C@H]1OC(=O)Nc1cc2cc(-c3cnc4c(c3C)NCCO4)c(F)c(N)c2cn1 (single isomer, unassigned) [Compound 515a]",0.105
18,"CC[C@H]1COC[C@@H]1OC(=O)Nc1cc2cc(-c3cnc4c(c3C)NCCO4)c(F)c(N)c2cn1 (single isomer, unassigned) [Compound 515b]",0.017
19,"Cc1c(-c2cc3cc(NC(=O)O[C@H]4COC[C@@H]4C4CC4)ncc3c(N)c2F)cnc2c1NCCO2 (single isomer, unassigned) [Compound 516a]",0.031
20,"Cc1c(-c2cc3cc(NC(=O)O[C@@H]4COC[C@H]4C4CC4)ncc3c(N)c2F)cnc2c1NCCO2 (single isomer, unassigned) [Compound 516b]",< 0.013
21,"Cc1c(-c2cc3cc(NC(=O)O[C@@H]4CCOC4)ncc3c(N)c2F)cnc2c1NC[C@@H](F)O2 (single isomer, unassigned) [Compound 518a]",0.069
22,"Cc1c(-c2cc3cc(NC(=O)O[C@@H]4CCOC4)ncc3c(N)c2F)cnc2c1NC[C@H](F)O2 (single isomer, unassigned) [Compound 518b]",0.044
23,"Cc1c(-c2cc3cc(NC(=O)O[C@H](C)CN(C)C)ncc3c(N)c2F)cnc2c1NCCO2 (single isomer, unassigned) [Compound 523a]",0.85
24,"Cc1c(-c2cc3cc(NC(=O)O[C@@H](C)CN(C)C)ncc3c(N)c2F)cnc2c1NCCO2 (single isomer, unassigned) [Compound 523b, (5)-1-(Dimethylamino)propan-2-yl (8-amino-7-fluoro-6-(8-methyl-2,3-dihydro-1H-pyrido[2,3-b][1,4]oxazin-7-yl)isoquinolin-3-yl)carbamate]",8.75

row,SMILES,Ki [nM]
1,"Cc1c(-c2cc3cc(NC(=O)O[C@H](C)CO)ncc3c(N)c2F)cnc2c1NCCO2 (single isomer, unassigned) [Compound 530a]",0.26
2,"Cc1c(-c2cc3cc(NC(=O)O[C@@H](C)CO)ncc3c(N)c2F)cnc2c1NCCO2 (single isomer, unassigned) [Compound 530b, (5)-1-Hydroxypropan-2-yl (8-amino-7-fluoro-6-(8-methyl-2,3-dihydro-1H-pyrido[2,3-b][1,4]oxazin-7-yl)isoquinolin-3-yl)carbamate]",0.11
3,"Cc1c(-c2cc3cc(NC(=O)OC4CN(C(=O)[C@H]5C[C@@H]5F)C4)ncc3c(N)c2F)cnc2c1NCCC2 (single isomer, unassigned) [Compound 531a]",0.055
4,"Cc1c(-c2cc3cc(NC(=O)OC4CN(C(=O)[C@@H]5C[C@H]5F)C4)ncc3c(N)c2F)cnc2c1NCCC2 (single isomer, unassigned) [Compound 531b]",0.152
5,"Cc1c(-c2cc3cc(NC(=O)O[C@@H]4CC[C@@](C)(O)C4)ncc3c(N)c2F)cnc2c1NCCO2 (single isomer, unassigned) [Compound 533a, hydrochloride]",0.035
6,"Cc1c(-c2cc3cc(NC(=O)O[C@H]4CC[C@](C)(O)C4)ncc3c(N)c2F)cnc2c1NCCO2 (single isomer, unassigned) [Compound 533b, hydrochloride]",0.059
7,"Cc1c(-c2cc3cc(NC(=O)O[C@H]4CC[C@@](C)(O)C4)ncc3c(N)c2F)cnc2c1NCCO2 (single isomer, unassigned) [Compound 533c, hydrochloride]",0.014
8,"Cc1c(-c2cc3cc(NC(=O)O[C@@H]4CC[C@](C)(O)C4)ncc3c(N)c2F)cnc2c1NCCO2 (single isomer, unassigned) [Compound 533d, hydrochloride]",0.015
9,"Cc1c(-c2cc3cc(NC(=O)O[C@@H]4COC[C@H]4C#N)ncc3c(N)c2F)cnc2c1NCCO2 (single isomer, unassigned) [Compound 538a]",0.058
10,"Cc1c(-c2cc3cc(NC(=O)O[C@H]4COC[C@@H]4C#N)ncc3c(N)c2F)cnc2c1NCCO2 (single isomer, unassigned) [Compound 538b]",0.016
11,"Cc1c(N)cncc1-c1cc2cc(NC(=O)O[C@H]3COC[C@@H]3C)ncc2c(N)c1F (single isomer, unassigned) [Compound 544a]",0.138
12,"Cc1c(N)cncc1-c1cc2cc(NC(=O)O[C@@H]3COC[C@H]3C)ncc2c(N)c1F (single isomer, unassigned) [Compound 544b]",2.7
13,"Cc1c(-c2cc3cc(NC(=O)OC4CN(C(=O)[C@H]5C[C@@H]5F)C4)ncc3c(N)c2F)cnc2c1NCCO2 (single isomer, unassigned) [Compound 545a]",0.021
14,"Cc1c(-c2cc3cc(NC(=O)OC4CN(C(=O)[C@@H]5C[C@H]5F)C4)ncc3c(N)c2F)cnc2c1NCCO2 (single isomer, unassigned) [Compound 545b]",0.018
15,"CO[C@@H]1COC[C@H]1OC(=O)Nc1cc2cc(-c3cnc4c(c3C)NCCO4)c(F)c(N)c2cn1 (single isomer, unassigned) [Compound 546b]",0.051
16,"CCc1c(-c2cc3cc(NC(=O)O[C@H]4COC[C@@H]4C)ncc3c(N)c2F)cnc2c1NCCO2 (single isomer, unassigned) [Compound 555a, hydrochloride]",< 0.013
17,"Cc1c(-c2cc(N)c3cnc(NC(=O)O[C@H]4COC[C@@H]4C)cc3c2)cnc2c1NCCO2 (single isomer, unassigned) [Compound 556a, hydrochloride]",0.032
18,"Cc1c(-c2cc(N)c3cnc(NC(=O)O[C@@H]4COC[C@H]4C)cc3c2)cnc2c1NCCO2 (single isomer, unassigned) [Compound 556b, hydrochloride]",< 0.013
19,"Cc1c(-c2cc3cc(NC(=O)O[C@H]4COC[C@@H]4C)ncc3c(N)c2F)cnc2c1NC(=O)CO2 (single isomer, unassigned) [Compound 558a, hydrochloride]",0.9
20,"Cc1c(-c2cc3cc(NC(=O)O[C@@H]4COC[C@H]4C)ncc3c(N)c2F)cnc2c1NC(=O)CO2 (single isomer, unassigned) [Compound 558b, hydrochloride]",3.75
21,"Cc1c(-c2cc3cc(NC(=O)O[C@@H]4CC[C@@H]4C)ncc3c(N)c2F)cnc2c1NCCO2 (single isomer, unassigned) [Compound 559a]",0.025
22,"Cc1c(-c2cc3cc(NC(=O)O[C@@H]4CC[C@@H]4C)ncc3c(N)c2F)cnc2c1NCCO2 (single isomer, unassigned) [Compound 559c]",< 0.013
23,"Cc1c(-c2cc3cc(NC(=O)OC4CC(O)C4)ncc3c(N)c2F)cnc2c1NC[C@@H](C)C2 (single isomer, unassigned) [Compound 560a]",0.019

# — US11612606B2, “8-aminoisoquinoline compounds and uses thereof” (priority 2018, dated 2023)
